From patent US20240336606A1 (Suzhou Zelgen Biopharmaceuticals Co., Ltd., priority 2020, published 2024)

biological target: T1, binding of KRAS^G12C to SOS1 (Homo sapiens, UniProt Q07889); assay: Inhibition of the binding of KRAS^G12C to SOS1; conditions: Tag1-SOS1 / Tag2-KRAS^G12C, 2 h incubation at room temperature; read-out: IC50 (nM), inhibitory activity on the binding of KRAS^G12C to SOS1
T1 construct: Tag1 (unspecified)
T1 sequence (Q07889 1-1333): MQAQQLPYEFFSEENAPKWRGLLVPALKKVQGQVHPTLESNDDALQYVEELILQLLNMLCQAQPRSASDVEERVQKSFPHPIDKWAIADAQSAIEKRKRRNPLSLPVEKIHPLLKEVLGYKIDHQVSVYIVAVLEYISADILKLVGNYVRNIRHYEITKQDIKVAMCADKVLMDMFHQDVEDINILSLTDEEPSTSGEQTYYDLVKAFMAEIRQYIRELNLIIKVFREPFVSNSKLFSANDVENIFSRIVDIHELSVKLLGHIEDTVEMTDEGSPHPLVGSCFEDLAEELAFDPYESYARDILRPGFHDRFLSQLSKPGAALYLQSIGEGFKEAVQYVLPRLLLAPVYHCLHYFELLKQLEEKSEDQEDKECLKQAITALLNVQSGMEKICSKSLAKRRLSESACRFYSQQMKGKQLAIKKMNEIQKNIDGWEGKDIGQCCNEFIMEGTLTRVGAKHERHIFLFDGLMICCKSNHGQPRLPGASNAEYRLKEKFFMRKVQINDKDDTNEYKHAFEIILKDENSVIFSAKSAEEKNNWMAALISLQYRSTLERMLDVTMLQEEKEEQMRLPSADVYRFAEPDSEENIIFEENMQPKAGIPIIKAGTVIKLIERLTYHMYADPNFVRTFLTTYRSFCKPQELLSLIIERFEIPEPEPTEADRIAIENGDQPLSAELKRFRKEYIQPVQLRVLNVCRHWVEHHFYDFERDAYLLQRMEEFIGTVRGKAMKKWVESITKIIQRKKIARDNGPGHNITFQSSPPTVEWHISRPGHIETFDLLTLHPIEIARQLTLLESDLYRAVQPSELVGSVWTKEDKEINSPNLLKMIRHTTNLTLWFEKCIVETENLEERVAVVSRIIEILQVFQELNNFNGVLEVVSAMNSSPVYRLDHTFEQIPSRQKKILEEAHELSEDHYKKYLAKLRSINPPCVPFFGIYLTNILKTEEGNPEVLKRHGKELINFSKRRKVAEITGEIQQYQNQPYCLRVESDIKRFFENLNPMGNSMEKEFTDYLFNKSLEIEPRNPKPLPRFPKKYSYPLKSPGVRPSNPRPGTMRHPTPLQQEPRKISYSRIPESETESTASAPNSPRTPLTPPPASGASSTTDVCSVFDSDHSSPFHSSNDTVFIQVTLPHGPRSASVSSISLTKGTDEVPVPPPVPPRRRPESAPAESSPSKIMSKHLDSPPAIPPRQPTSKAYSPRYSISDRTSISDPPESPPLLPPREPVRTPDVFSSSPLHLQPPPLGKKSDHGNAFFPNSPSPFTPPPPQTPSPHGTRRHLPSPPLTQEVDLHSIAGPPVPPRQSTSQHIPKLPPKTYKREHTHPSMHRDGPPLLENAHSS
In short: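 Tag1-SOS1 and Tag2-KRAS^G12C mixed with serially diluted compound (final 0.25% DMSO), then anti-Tag1-Tb3+ and anti-Tag2-XL665 added for 2 h at room temperature. IC50 from curve fit of the TR-FRET signal.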

| IC50 [nM] | SMILES |
| --- | --- |
| 15 | COCCOc1cc2c(N[C@H](C)c3cc(N)cc(OC(F)(F)F)c3)nc(C)nc2cc1OC [Example 83, (R)—N-(1-(3-Amino-5-(trifluoromethoxy)phenyl)ethyl)-7-methoxy-6-(2-methoxyethoxy)-2-methylquinazolin-4-amine] |
| 4.4 | COCCOc1cc2nc(C)nc(N[C@H](C)c3cccc(C(F)(F)C(C)(C)O)c3F)c2cc1OCCOC [Example 86, (R)-1-(3-(1-((6,7-Bis(2-methoxyethoxy)-2-methylquinazolin-4-yl)amino)ethyl)-2-fluorophenyl)-1,1-difluoro-2-methylpropan-2-ol] |

test system: H358 cells; assay: Inhibition of H358 cell proliferation (CellTiter-Glo 3D, 7 days); assay type: cell-based; conditions: Homo sapiens, 168 h, NCI-H358, 7 days, read-out: IC50 (nM), inhibitory activity on H358 cell proliferation
Protocol: • (a) The cells were thawed in T75 cell culture flasks:
• (b) When 80-90% cell confluence was achieved, the cells were passaged.
The diluted test compounds were added to a 384-well cell culture plate using a nanoliter pipetting system, and duplicate wells were set. An equal volume of medium was added to the positive control group; an equal volume of DMSO was added to the negative control group. The plate was centrifuged at 1000 rpm at room temperature for 1 min.
The cells were inoculated into a) 384-well culture plate, an equal volume of cells was added to the negative control group, and only an equal volume of medium was added to the positive control group. The plate was centrifuged at 1000 rpm at room temperature for 1 min. The final concentration of DMSO in the final compounds was 0.5%. The plate was incubated in a thermostatic incubator at 37° C. with 5% CO2 for 7 days.
CellTiter-Glo® 3D was added to b) 384-well cell culture plate at 20 μL/well. The plate was shaken at 320 rpm in the dark for 20 min, and incubated at room temperature in the dark for 2 h. The luminescence values were read using an Envision multi-mode microplate reader.
The inhibition rates of the compounds at different concentrations were calculated in Excel, and then inhibition curves were plotted and relevant parameters including minimum inhibition rate, maximum inhibition rate and IC50 were calculated using GraphPad Prism software.

| IC50 [nM] | SMILES |
| --- | --- |
| 14.5 | C#Cc1cc2nc(C)nc(N[C@H](C)c3cc(N)cc(C(F)(F)C(C)(C)O)c3)c2cc1OCCOC [Example 163, (R)-1-(3-Amino-5-(1-((7-ethynyl-6-(2-methoxyethoxy)-2-methylquinazolin-4-yl)amino)ethyl)phenyl)-1,1-difluoro-2-methylpropan-2-ol] |
| 15.6 | COCC(COC)Oc1cc2c(N[C@H](C)c3cc(N)cc(C(F)(F)C(C)(C)O)c3)nc(C)nc2cc1OC [Example 122] |
| 34.7 | C#Cc1cc2nc(C)nc(N[C@H](C)c3cccc(C(F)(F)C(C)(C)O)c3F)c2cc1OCCOC [Example 153, (R)-1-(3-(1-(7-ethynyl-6-(2-methoxyethoxy)-2-methylquinazoline-4-amino)ethyl)-2-fluorophenyl)-1,1-difluoro-2-methylpropan-2-ol] |
| 15.8 | C#Cc1cc2nc(C)nc(N[C@H](C)c3cccc(C(F)(F)C(C)(C)O)c3F)c2cc1OCCOC1COC1 [Example 157, (R)-1-(3-(1-((7-Ethynyl-2-methyl-6-(2-(oxetan-3-yloxy)ethoxy)quinazolin-4-yl)amino)ethyl)-2-fluorophenyl)-1,1-difluoro-2-methylpropan-2-ol] |
| 11.5 | COCCOCCOc1cc2c(N[C@H](C)c3cc(N)cc(C(F)(F)C(C)(C)O)c3)nc(C)nc2cc1OC [Example 119, (R)-1-(3-Amino-5-(1-(7-methoxy-6-(2-(2-methoxyethoxy)ethoxy)-2-methylquinazolin-4-yl)amino)ethylphenyl)-1,1-difluoro-2-methylpropan-2-ol] |
| 32.8 | COCCOc1cc2c(N[C@H](C)c3cc(N)cc(C(F)(F)C(C)(C)O)c3)nc(C)nc2cc1-c1cc[nH]n1 [Example 123, (R)-1-(3-Amino-5-(1-((6-(2-methoxyethoxy)-2-methyl-7-(1H-pyrazolyl-3-yl)quinazolin-4-yl)amino)ethyl)phenyl)-1,1-difluoro-2-methylpropan-2-ol] |

The next lines start with the molecule.

| SMILES | IC50 [nM] |
| --- | --- |
| COCCOc1cc2c(N[C@H](C)c3cc(N)cc(OC(F)(F)F)c3)nc(C)nc2cc1OC [Example 83, (R)—N-(1-(3-Amino-5-(trifluoromethoxy)phenyl)ethyl)-7-methoxy-6-(2-methoxyethoxy)-2-methylquinazolin-4-amine] | 187 |
| COc1cc2nc(C)nc(N[C@H](C)c3cc(N)cc(C(F)(F)C(C)(C)O)c3)c2cc1OCCOC1CC1(F)F (some centres unmarked) [Example 118] | 2.65 |
| COCCOc1cc2nc(C)nc(N[C@H](C)c3cccc(C(F)(F)C(C)(C)O)c3F)c2cc1OCCOC [Example 86, (R)-1-(3-(1-((6,7-Bis(2-methoxyethoxy)-2-methylquinazolin-4-yl)amino)ethyl)-2-fluorophenyl)-1,1-difluoro-2-methylpropan-2-ol] | 11.8 |
| COc1cc2nc(C)nc(N[C@H](C)c3cc(N)cc(C(F)(F)C(C)(C)O)c3)c2cc1OCCOC1COC1 [Example 117, (R)-1-(3-Amino-5-(1-((7-methoxy-2-methyl-6-(2-(oxetan-3-yloxy)ethoxy)quinazolin-4-yl)amino)ethyl)phenyl)-1,1-difluoro-2-methylpropyl-2-ol] | 2.65 |
| CCOc1cc2nc(C)nc(N[C@H](C)c3cccc(C(F)(F)C(C)(C)O)c3F)c2cc1OCCOC [Example 98, (R)-1-(3-(1-((7-Ethoxy-6-(2-methoxyethoxy)-2-methylquinazolin-4-yl)amino)ethyl)-2-fluor ophenyl)-1,1-difluoro-2-methylpropan-2-ol] | 12.8 |
| COc1cc2nc(C)nc(N[C@H](C)c3cccc(C(F)(F)C(C)(C)O)c3F)c2cc1OCCOC1CC1 [Example 93, (R)-1-(3-(1-((6-(2-Cyclopropyloxyethoxy)-7-methoxy-2-methylquinazolin-4-yl)amino)ethyl)-2-fluorophenyl)-1,1-difluoro-2-methylpropan-2-ol] | 40.9 |
| COCCOc1cc2c(N[C@H](C)c3cccc(C(F)(F)C(C)(C)O)c3F)nc(C)nc2cc1-c1cnn(C)c1 [Example 102, (R)-1,1-Difluoro-1-(2-fluoro-3-(1-((6-(2-methoxyethoxy)-2-methyl-7-(1-methyl-1H-pyrazol-4-yl)quinazolin-4-yl)amino)ethyl)phenyl)-2-methylpropyl-2-ol] | 13.3 |
| COCCOc1cc2c(N[C@H](C)c3cccc(C(F)(F)C(C)(C)O)c3C)nc(C)nc2cc1OC [Example 90, (R)-1,1-Difluoro-1-(3-(1-((7-methoxy-6-(2-methoxyethoxy)-2-methylquinazolin-4-yl)amino)ethyl)-2-methylphenyl)-2-methylpropan-2-ol] | 48.6 |
| COc1cc2nc(C)nc(N[C@H](C)c3cc(N)cc(C(F)(F)C(C)(C)O)c3)c2cc1OCCOC1CC1 [Example 116, (R)-1-(3-Amino-5-(1-((6-(2-cyclopropoxyethoxy)-7-methoxy-2-methylquinazolin-4-yl)amino)ethyl)phenyl)-1,1-difluoro-2-methylpropyl-2-ol] | 4.29 |
| [2H]C([2H])([2H])Oc1cc2nc(C)nc(N[C@H](C)c3cccc(C(F)(F)C(C)(C)O)c3F)c2cc1OCCOC [Example 97, (R)-1,1-Difluoro-1-(2-fluoro-3-(1-((7-deuteratedmethoxy-6-(2-methoxyethoxy)-2-methylquinazolin-4-yl)amino)ethyl)phenyl)-2-methylpro pan-2-ol] | 15.5 |
| COCCOc1cc2nc(C)nc(N[C@H](C)c3cc(N)cc(C(F)(F)C(C)(C)O)c3)c2cc1OCCOC [Example 113, (R)-1-(3-Amino-5-(1-((6,7-bis(2-methoxyethoxy)-2-methylquinazolin-4-yl)amino)ethyl)phenyl)-1,1-difluoro-2-methylpropan-2-ol] | 10.4 |
| COc1cc2nc(C)nc(N[C@H](C)c3cc(N)cc(C(F)(F)C(C)(C)O)c3)c2cc1OCCOc1cccnc1 [Example 115, (R)-1-(3-Amino-5-(1-(7-methoxy-2-methyl-6-(2-(pyridine-3-oxy)ethoxy)quinazolin-4-yl)amino)ethyl)phenyl-1,1-difluoro-2-methylpropan-2-ol] | 9.92 |
| COCCOc1cc2c(N[C@H](C)c3cccc(C(F)(F)C(C)(C)O)c3F)nc(C)nc2cc1OC1COC1 [Example 103] | 23.5 |
| COc1cc2nc(C)nc(N[C@H](C)c3cccc(C(F)(F)C(C)(C)O)c3F)c2cc1OCCOC1COC1 [Example 92, (R)-1,1-Difluoro-1-(2-fluoro-3-(1-((7-methoxy-2-methyl-6-(2-(oxetan-3-yloxy)ethoxy)quinazolin-4-yl)amino)ethyl)phenyl)-2-methylpropan-2-ol] | 18.2 |
| COCCOc1cc2c(N[C@H](C)c3cccc(C(F)(F)C(C)(C)O)c3F)nc(C)nc2cc1-c1cccnc1 [Example 101, (R)-1,1-Difluoro-1-(2-fluoro-3-(1-((6-(2-methoxyethoxy)-2-methyl-7-(pyridin-3-yl)quinazolin-4-yl)amino)ethyl)phenyl)-2-methylpropyl-2-ol] | 15.5 |
